One series concerns HT-29. In words: Cytotoxicity against human HT-29 cells. The series is classed as functional. To be noted: read-out: ED50 (the source's name).
Series [1] in a line: Cytotoxicity against human KBMRI cells. The series is classed as functional. As to conditions: read-out: ED50 (the source's name).
Another series deals with A549. In words: Cytotoxicity against human A549 cells. The series is classed as functional. As to conditions: read-out: ED50 (the source's name).
The test system of another series is Artemia. Briefly: Toxicity in brine shrimp. The series is classed as organism-based. As to conditions: in vivo.
The subject of a further series is P388. In words: In vivo cytotoxicity against mouse P388 cells relative to control. The series is classed as functional.
The subject of series [2] is Agrobacterium tumefaciens. Briefly: Antitumor activity against Agrobacterium tumefaciens-induced crown gall tumors in potato tubers by potato disk test. The series is classed as functional.

Converted amounts (≈) assume the structure as drawn.

Experimental findings from ChEMBL document CHEMBL1147291, “Bioactive compounds from the root of Myrsine africana” (J Nat Prod, 1989) are described below.

For `Cc1cc2c(c(O)c1O)C(=O)c1c(O)cccc1C2=O`, the EC50 in the series with HT-29 is 2.8 µg/mL (≈ 10.4 µM); in series [1], 5.7 µg/mL (≈ 21.1 µM); with A549, 3.1 µg/mL (≈ 11.5 µM).
As a reminder, the LC50 is the concentration lethal to half of the exposed cells or organisms. High values mean lower toxicity, low ones greater toxicity. Regarding `COc1cc(O)c2c(c1)COC2=O`, in the series on Artemia, the median lethal concentration (LC50) is > 1000 ppm. The EC50 in the series on HT-29 is 28 µg/mL (≈ 155 µM); in series [1], > 100 µg/mL; in the series on A549 it was > 100 µg/mL.
In general, T/C refers to the result in the treated group divided by that in the control group, in per cent. With `Cc1cc(O)c2c(c1)C(=O)c1cc(O)cc(O)c1C2=O` [EMODIN], in the series on P388, the T/C was 127%. For the same molecule, in series [2], the “inhibition (INH)” value was 40%. Further, the LC50 with Artemia turned out to be 35 ppm. Besides, the values for the EC50 (with HT-29; in series [1]; with A549) were > 10 µg/mL, 6 µg/mL (≈ 22.2 µM) and 4.2 µg/mL (≈ 15.5 µM), respectively.
For `CC(=O)c1c(C)cc2cccc(O)c2c1O` [NEPODIN], the LC50 in the series on Artemia was 105 ppm. The EC50 in the series on HT-29 came out at 36.7 µg/mL (≈ 170 µM); in series [1] it was 36.7 µg/mL (≈ 170 µM); with A549, 31 µg/mL (≈ 143 µM).
